Assay results reported in article PMC7613620, “Reaction hijacking of tyrosine tRNA synthetase as a whole-of-life-cycle antimalarial strategy” (Science (New York, N.Y.), 2022).

System: P. falciparum 3D7 clones selected with ML901 (D4, F7, B11)
Assay: In vitro evolved ML901-resistant 3D7 clones, IC50_72h
Format: cell-based, Plasmodium falciparum
Procedure: 537 Screening of nucleoside sulfamates for inhibition of the growth of cultures of P. falciparum (3D7).
538 High throughput screening of compounds from the Takeda library was performed by SCYNEXIS, Inc.
539 Jersey City, NJ, USA. Synchronized (5% sorbitol) ring stage parasites (3D7 strain; 1.5% haematocrit; 0.1
540 – 0.5% starting parasitemia) were incubated in 96-well plates, in triplicate, diluted in DMSO, for 72 h in
541 RPMI 1640 supplemented with 10% human serum, 5% CO2, 5% O2, 90% N2. Infected RBCs were lysed
542 with 10 mM Tris HCl, 5 mM EDTA, 0.008% saponin, 0.08% Triton X-100, pH 7.5, containing SYBR
543 Green. Following incubation for 15-60 min, fluorescence signal was assessed. Sigmoidal dose response
544 curves were generated and the IC50 values determined using CLfit curve fitting software from IDBS […]
549 stage parasites (3D7 strain (43)) were incubated with the inhibitors for 72 h and viability was assessed in […]
638 precipitated with acetonitrile and the remaining compound was assessed by LC-MS/MS in the selected reaction […]
648 0.5% formic acid in methanol and the supernatants were analysed by positive ion electrospray LC-MS for
649 the administered compound. Non-compartmental pharmacokinetic parameters were calculated from […]
660 IGM Genomics Center on the Illumina HiSeq 2500 in RapidRun mode to generate 100bp paired-end reads.

Nc1ncnc2c1c(OC(F)F)nn2[C@@H]1O[C@H](COS(N)(=O)=O)[C@@H](O)[C@H]1O [ML901]
reduced sensitivity of selected parasites (3D7 line under increasing compound concentrations over 4 months, versus parent): 10 fold | IC50 (Plasmodium falciparum, 3D7, read-out: IC50_72h, ML901-selected resistant clones): 28 nM
